Experimental data reported in patent US8791132B2, “Compounds and methods for treatment of hypertension” (Medivation Technologies, Inc., priority 2011, dated 2014).
Several values for one entry are separate records, joined by “and”; a condition that tells them apart may be missing. Equal values may be shown once. Read-outs that look alike come from different tables or passages of the source. Values belong to the molecule of their own block, whether it stands above or below them.

How the values were obtained:
[1] = target: T1, human recombinant adrenergic α2A receptor (Homo sapiens, UniProt P08913); assay: Radioligand binding, adrenergic α2A ([3H]MK-912); details: for inhibition at 0.1 µM / Percentage inhibition of ligand binding, Adrenergic α2A (0.1 μM): [3H]MK-912
T1 construct: expressed in transfected cells; host or cells: insect Sf9 cells
T1 sequence (P08913 1-465): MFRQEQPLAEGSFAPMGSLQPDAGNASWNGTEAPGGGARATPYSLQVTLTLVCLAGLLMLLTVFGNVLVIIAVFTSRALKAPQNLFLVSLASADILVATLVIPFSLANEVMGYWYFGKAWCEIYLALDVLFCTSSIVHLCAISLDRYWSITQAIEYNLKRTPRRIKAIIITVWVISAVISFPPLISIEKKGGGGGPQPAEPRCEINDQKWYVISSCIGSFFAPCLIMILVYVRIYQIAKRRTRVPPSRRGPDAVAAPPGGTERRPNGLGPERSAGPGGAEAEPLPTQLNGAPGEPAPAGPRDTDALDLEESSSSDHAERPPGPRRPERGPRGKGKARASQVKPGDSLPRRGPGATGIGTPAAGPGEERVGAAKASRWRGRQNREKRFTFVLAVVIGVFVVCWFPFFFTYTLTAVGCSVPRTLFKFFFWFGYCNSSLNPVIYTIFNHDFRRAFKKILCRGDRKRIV
In short: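 Sf9 membranes, 1 nM [3H]MK-912, 60 min, 25 °C, Tris-HCl pH 7.4/MgCl2/EDTA buffer. NSB: 10 μM WB-4101. Filtration, counting; % inhibition of specific binding.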

[2] = target: T2, human recombinant adrenergic α2B receptor (Homo sapiens, UniProt P18089); assay: Radioligand binding, adrenergic α2B ([3H]Rauwolscine); details: for inhibition at 0.03 µM / inhibition at 0.1 µM / Percentage inhibition of ligand binding, Adrenergic α2B (0.03 μM): [3H]Rauwolscine; for inhibition at 0.1 µM: read-out: Percentage inhibition of ligand binding, Adrenergic α2B (0.1 μM), compound at 0.1 μM; for Ki: read-out: Ki α2B
T2 construct: expressed in transfected cells; host or cells: CHO-K1
T2 sequence (P18089 1-450): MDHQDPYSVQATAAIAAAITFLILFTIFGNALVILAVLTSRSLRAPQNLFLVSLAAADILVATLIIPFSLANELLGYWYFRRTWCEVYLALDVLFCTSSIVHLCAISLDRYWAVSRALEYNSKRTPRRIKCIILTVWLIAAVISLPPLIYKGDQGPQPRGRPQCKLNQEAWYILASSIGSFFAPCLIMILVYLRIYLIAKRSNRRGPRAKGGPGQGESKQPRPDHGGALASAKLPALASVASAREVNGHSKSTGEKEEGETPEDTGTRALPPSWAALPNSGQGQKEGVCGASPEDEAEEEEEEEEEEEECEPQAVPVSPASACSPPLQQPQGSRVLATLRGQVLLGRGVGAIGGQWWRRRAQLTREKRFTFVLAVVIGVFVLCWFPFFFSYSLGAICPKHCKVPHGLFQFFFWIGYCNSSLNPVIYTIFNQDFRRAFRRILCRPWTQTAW
In short: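 Readout: percent inhibition of specific [3H]Rauwolscine binding, measured by filtration and counting. Conditions: CHO-K1 cell-expressed receptor, 2.5 nM radioligand, 60 min, 25° C, Tris-HCl pH 7.4 buffer with MgCl2, EDTA, BSA. Non-specific binding: 10 μM Prazosin.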

[3] = target: T3, rat adrenergic α1B receptor (Rattus norvegicus, UniProt P15823); assay: Radioligand binding, adrenergic α1B ([3H]Prazosin); details: [3H]Prazosin
T3 construct: rat adrenergic α1B receptor obtained from Wistar Rat liver; from tissue; host or cells: Wistar rat liver
T3 sequence (P15823 1-515): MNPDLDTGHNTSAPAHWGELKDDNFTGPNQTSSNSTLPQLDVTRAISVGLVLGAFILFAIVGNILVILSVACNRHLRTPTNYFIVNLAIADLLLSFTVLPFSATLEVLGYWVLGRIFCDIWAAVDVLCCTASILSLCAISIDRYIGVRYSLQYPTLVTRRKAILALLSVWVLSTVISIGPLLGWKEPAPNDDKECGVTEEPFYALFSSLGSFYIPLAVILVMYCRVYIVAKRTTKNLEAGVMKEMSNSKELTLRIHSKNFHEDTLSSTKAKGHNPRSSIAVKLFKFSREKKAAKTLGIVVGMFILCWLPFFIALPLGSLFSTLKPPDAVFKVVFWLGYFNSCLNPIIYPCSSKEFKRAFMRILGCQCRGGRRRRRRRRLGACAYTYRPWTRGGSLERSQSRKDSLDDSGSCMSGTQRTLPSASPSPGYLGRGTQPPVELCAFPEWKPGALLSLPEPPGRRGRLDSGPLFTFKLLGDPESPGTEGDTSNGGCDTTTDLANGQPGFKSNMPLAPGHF
In short: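 Rat α1B receptor from Wistar rat liver was incubated with 0.25 nM [3H]prazosin for 60 min at 25 °C in 50 mM Tris-HCl, pH 7.4, 0.5 mM EDTA. Non-specific binding was defined with 10 μM phentolamine. Bound radioligand was measured by filtration and counting, reported as percent inhibition of specific binding.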

[4] = compound at 0.1 μM, repeat assays, each datapoint shown, read-out: Percentage inhibition of ligand binding, Adrenergic α2A
[5] = compound at 0.03 μM, repeat assays, each datapoint shown, read-out: Percentage inhibition of ligand binding, Adrenergic α2B
[6] = compound at 0.1 μM, repeat assays, each datapoint shown, read-out: Percentage inhibition of ligand binding, Adrenergic α1B
[7] = read-out: Percentage inhibition of ligand binding, Adrenergic α2A (0.1 μM), compound at 0.1 μM, repeat datapoints each shown
[8] = read-out: Percentage inhibition of ligand binding, Adrenergic α1B (0.1 μM), compound at 0.1 μM, repeat datapoints each shown
[9] = read-out: Percentage inhibition of ligand binding, Adrenergic α2B (0.03 μM), compound at 0.03 μM, repeat datapoints each shown
[10] = compound at 0.1 μM, repeat datapoints each shown
[11] = compound at 0.03 μM, repeat datapoints each shown

inhibition at 0.1 µM [1, 4]: 10%
inhibition at 0.03 µM [2, 5]: 26%
inhibition at 0.1 µM [3, 6]: 8%
Compound: CC(O)c1ccc2c(c1)c1c(n2CC(O)c2ccncc2)CCN(C)C1 (centres unmarked) [compound 70]

inhibition at 0.1 µM [1, 4]: -2%
inhibition at 0.03 µM [2, 5]: 12%
inhibition at 0.1 µM [3, 6]: 6%
Compound: CCOC(=O)N1CCc2c(c3cc(C)ccc3n2CC(O)c2ccncc2)C1 (centres unmarked) [compound 72, ethyl 3,4-dihydro-5-(2-hydroxy-2-(pyridin-4-yl)ethyl)-8-methyl-1H-pyrido[4,3-b]indole-2(5H)-carboxylate]

Ki [1]: 390 nM
Percentage inhibition of ligand binding, Adrenergic α2A (0.1 μM) [1, 10]: −2%
Percentage inhibition of ligand binding, Adrenergic α2B (0.03 μM) [2, 11]: 59% and 83%
Ki [2]: 8.12 nM
inhibition at 0.1 µM ([2]; repeat datapoints each shown): 87%
Percentage inhibition of ligand binding, Adrenergic α1B (0.1 μM) [3, 10]: 72%
inhibition at 0.03 µM ([3]; read-out: Percentage inhibition of ligand binding, Adrenergic α1B (0.03 μM), compound at 0.03 μM, repeat datapoints each shown): 46%
Compound: Cc1ccc2c(c1)c1c(n2CC(O)c2ccc(C(N)=O)cc2)CCN(C)C1 (centres unmarked) [compound 139, 4-[2-(2,8-dimethyl-1,2,3,4-tetrahydro-pyrido[4,3-b]indol-5-yl)-1-hydroxy-ethyl]-benzamide]

Percentage inhibition of ligand binding, Adrenergic α2A (0.1 μM) [1, 10]: −2%
Percentage inhibition of ligand binding, Adrenergic α2B (0.03 μM) [2, 11]: 49%
Percentage inhibition of ligand binding, Adrenergic α1B (0.1 μM) [3, 10]: 37%
Compound: Cc1ccc2c(c1)c1c(n2CC(O)c2ccc(C#N)nc2)CCN(C)C1 (centres unmarked) [compound 140, 5-[2-(2,8-dimethyl-1,2,3,4-tetrahydro-pyrido[4,3-b]indol-5-yl)-1-hydroxy-ethyl]-pyridine-2-carbonitrile]

inhibition at 0.1 µM [1, 7]: 6%
inhibition at 0.03 µM [2, 9]: 61%
inhibition at 0.1 µM [3, 8]: 49%
Compound: Cc1cnc2c(c1)c1c(n2CC(O)c2ccc(C#N)cc2)CCN(C)C1 (centres unmarked) [compound 145]

Percentage inhibition of ligand binding, Adrenergic α2A (0.1 μM) [1, 10]: 19%
Percentage inhibition of ligand binding, Adrenergic α2B (0.03 μM) [2, 11]: 91% and 102%
Ki [2]: 1.49 nM
Percentage inhibition of ligand binding, Adrenergic α1B (0.1 μM) [3, 10]: 7%
Compound: Cc1ccc2c(c1)c1c(n2CC(OC(=O)c2ccncc2)c2ccncc2)CCN(C)C1 (centres unmarked) [compound 147, isonicotinic acid 2-(2,8-dimethyl-1,2,3,4-tetrahydro-pyrido[4,3-b]indol-5-yl)-1-pyridin-4-yl-ethylester]

inhibition at 0.1 µM [1, 7]: 6%
inhibition at 0.03 µM [2, 9]: 43%
inhibition at 0.1 µM [3, 8]: 57%
Compound: Cc1ccc2c(c1)c1c(n2CC(N)c2ccc(C(N)=O)nc2)CCN(C)C1 (centres unmarked) [compound 157, 5-[1-amino-2-(2,8-dimethyl-1,2,3,4-tetrahydro-pyrido[4,3-b]indol-5-yl)-ethyl]-pyridine-2-carboxylic acid amide]

The remaining lines, values behind:

Compound: Cc1ccc2c(c1)c1c(n2CC(O)c2ccncc2)C(C)(C)CN(C)C1 (centres unmarked) [compound 71, 1-pyridin-4-yl-2-(2,4,4,8-tetramethyl-1,2,3,4-tetrahydro-pyrido[4,3-b]indol-5-yl)-ethanol]
inhibition at 0.1 µM [1, 4]: 11%
inhibition at 0.03 µM [2, 5]: 9%
inhibition at 0.1 µM [3, 6]: 11%

Compound: Cc1ccc2c(c1)c1c(n2CC(O)c2ccncc2)CC2CCC1N2C (centres unmarked) [compound 73]
inhibition at 0.1 µM [1, 4]: 15%
inhibition at 0.03 µM [2, 5]: 61%
inhibition at 0.1 µM [3, 6]: 17%

Compound: Cc1ccc2c(c1)c1c(n2/C=C/c2ccncc2)CCNC1 [compound 79, 8-methyl-5-(2-(pyridin-4-yl)vinyl)-2,3,4,5-tetrahydro-1H-pyrido[4,3-b]indole]
inhibition at 0.1 µM [1, 4]: 19%
inhibition at 0.03 µM [2, 5]: 77%
inhibition at 0.1 µM [3, 6]: 34%

Compound: C/C(=C/n1c2c(c3cc(C)ccc31)CN(C)CC2)c1cn[nH]c1 [compound 80]
inhibition at 0.1 µM [1, 4]: 12%
inhibition at 0.03 µM [2, 5]: 81%
inhibition at 0.1 µM [3, 6]: 49%

Compound: Cc1cccc2c3c(n(CC(O)c4ccncc4)c12)CCN(C)C3 (centres unmarked) [compound 82, 2-(2,6-dimethyl-1,2,3,4-tetrahydro-pyrido[4,3-b]indol-5-yl)-1-pyridin-4-yl-ethanol]
inhibition at 0.1 µM [1, 4]: 5%
inhibition at 0.03 µM [2, 5]: 79%
inhibition at 0.1 µM [3, 6]: 16%

Compound: Cc1ccc2c(c1)c1c(n2CCc2cncc(F)c2)CCN(C)C1 [compound 117, 5-[2-(5-fluoro-pyridin-3-yl)-ethyl]-2,8-dimethyl-2,3,4,5-tetrahydro-1H-pyrido[4,3-b]indole]
inhibition at 0.1 µM [1, 7]: 18%
inhibition at 0.1 µM ([2]; repeat datapoints each shown): 68%
inhibition at 0.1 µM [3, 8]: 59%

Compound: C=C(Cn1c2c(c3cc(C)ccc31)CN(C)CC2)c1cccnc1 [compound 132]
inhibition at 0.1 µM [1, 7]: 19%
inhibition at 0.03 µM [2, 9]: 91%
inhibition at 0.1 µM [3, 8]: 28%

Compound: Cc1ccc2c(c1)c1c(n2CC(OC(=O)N(C)C)c2ccncc2)CCN(C)C1 (centres unmarked) [compound 141, N,N-dimethyl-carbamic acid 2-(2,8-dimethyl-1,2,3,4-tetrahydro-pyrido[4,3-b]indol-5-yl)-1-pyridin-4-yl-ethyl ester]
Percentage inhibition of ligand binding, Adrenergic α2A (0.1 μM) [1, 10]: 5%
inhibition at 0.03 µM [2, 9]: 76%
inhibition at 0.1 µM [3, 8]: 23%

Compound: Cc1ccc2c(c1)c1c(n2CC(N)c2ccncc2)CN(C)CC1 (centres unmarked) [compound 153, 2-(2,6-dimethyl-3,4-dihydro-1H-pyrido[3,4-b]indol-9(2H)-yl)-1-(pyridin-4-yl)ethanamine]
inhibition at 0.1 µM [1, 7]: 6%
inhibition at 0.03 µM [2, 9]: 17%
inhibition at 0.1 µM [3, 8]: 17%

Compound: Cc1ccc2c(c1)c1c(n2CC(N)c2ccncc2)CCN(C)CC1 (centres unmarked) [compound 154, 2-(3,9-dimethyl-2,3,4,5-tetrahydroazepino[4,5-b]indol-6(1H)-yl)-1-(pyridin-4-yl)ethanamine]
Percentage inhibition of ligand binding, Adrenergic α2A (0.1 μM) [1, 10]: 15%
Percentage inhibition of ligand binding, Adrenergic α2B (0.03 μM) [2, 11]: 58%
Percentage inhibition of ligand binding, Adrenergic α1B (0.1 μM) [3, 10]: 86%

Compound: Cc1cnc2c(c1)c1c(n2CC(N)c2ccncc2)CCN(C)C1 (centres unmarked) [compound 156]
inhibition at 0.1 µM [1, 7]: 1%
inhibition at 0.03 µM [2, 9]: 6%
inhibition at 0.1 µM [3, 8]: 21%

Compound: Cc1cnc2c(c1)c1c(n2CC(N)c2ccncc2)CCNC1 (centres unmarked) [compound 158]
inhibition at 0.1 µM [1, 7]: -1%
inhibition at 0.03 µM [2, 9]: 43%
inhibition at 0.1 µM [3, 8]: 8%

Compound: Cc1ccc2c(c1)c1c(n2CC(O)c2ccnc(C(=O)O)c2)CCN2CCCC12 (centres unmarked) [compound 168]
inhibition at 0.1 µM [1, 7]: 16%
inhibition at 0.03 µM [2, 9]: 32%
inhibition at 0.1 µM [3, 8]: 23%

Compound: Cc1ccc2c(c1)c1c(n2CC(C)(O)c2ccc(C(=O)O)nc2)CCN(C)C1 (centres unmarked) [compound 169, 5-(1-(1,2,3,4-tetrahydro-2,8-dimethylpyrido[4,3-b]indol-5-yl)-2-hydroxypropan-2-yl)pyridine-2-carboxylic acid]
inhibition at 0.1 µM [1, 7]: 15%
inhibition at 0.03 µM [2, 9]: 20%
inhibition at 0.1 µM [3, 8]: 2%
